Patent US9643928B2, “Crystalline forms of {[1-cyano-5-(4-chlorophenoxy)-4-hydroxy-isoquinoline-3-carbonyl]-amino}-acetic acid” (FIBROGEN, INC., priority 2013, dated 2017)
“Also recorded” adds a separate entry of the source. One block for each molecule: values may come before it.

Key:
[1] = tested on: Female Wistar rats with subtotal nephrectomy; assay: Anemia induced by chronic kidney disease (5/6 nephrectomy, rat remnant kidney model); assay type: in vivo
Text: Female Wistar rats underwent subtotal nephrectomy (⅚) surgery to induce chronic kidney disease by ligating the left kidney to infarct ⅔ of the kidney while the right kidney underwent simultaneous total nephrectomy. As a control, additional animals underwent a sham surgery, without nephrectomy. Five weeks after surgery, anemia and chronic kidney disease in the nephrectomized animals were confirmed by clinical pathology and animals were then assigned to one of three treatment groups (n=8/group) and treated with 0 (vehicle), 8 or 20 mg/kg Compound A. The sham group (n=8) received 0 mg/kg (vehicle). Starting 6 weeks after surgery, all animals were dosed TIW (on Monday, Wednesday, and Friday) via oral gavage for 2 weeks. Whole blood samples were collected 5, 7, and 8 weeks after surgery.

[2] = tested on: Female Lewis rats challenged with peptidoglycan-polysaccharide polymers (PG-PS); assay: Anemia of chronic disease model (PG-PS challenge); assay type: in vivo
Protocol: Female Lewis rats were challenged with peptidoglycan-polysaccharide polymers (PG-PS) to induce arthritis and anemia. Arthritis and anemia were allowed to develop for 28 days prior to initiation of treatment with Compound A (oral gavage, 8 or 20 mg/kg) or vehicle (n=8/group). Treatments were administered 3 times per week (Monday, Wednesday, and Friday), for 2 weeks. Progression of the model was monitored by measurement of paw swelling and hematology parameters. Blood samples were analyzed for hematopoiesis and iron parameters. The study also included three non-challenged control groups (n=5/group) that were injected with saline rather than PG-PS and then treated with vehicle or Compound A (8 or 20 mg/kg) as described for the PG-PS animals. […] In addition to anemia, PG-PS-challenged rats developed systemic inflammation and arthritis, as indicated by elevated white blood cell counts and swelling of the extremities.

[3] = tested on: healthy male volunteers; assay: Single oral dose in healthy male volunteers: erythropoietin, reticulocyte and hemoglobin levels; assay type: in vivo, human
Protocol: A single dose of Compound A (Form 2, capsules) was administered orally to healthy male volunteers. Compound A was provided in 1 mg and 5 mg capsules with the dose being rounded to the nearest whole capsule. In cohorts 1-4 the doses were 0.05 mg/kg, 0.15 mg/kg, 0.3 mg/kg and 0.4 mg/kg respectively. The time points for blood collection were: predose, 8, 12, 16, 20, 24, 30, 48, 72, 96 and 120 hours, days 8, 10, 12, and 15 post dose.

[4] = tested on: male Swiss Webster mice; assay: Hemoglobin and hematocrit levels in mice after 1 week of intermittent oral dosing; assay type: in vivo
Protocol: Compound A (2, 6, 20, 60, 100 or 200 mg/kg as an oral gavage) or vehicle control were administered orally 3 times in 1 week on Monday, Wednesday, and Friday (4-8 male Swiss Webster mice/group). Three days after the last dose, all animals were euthanized and blood and serum were collected for complete blood counts (CBC) and serum chemistry.

[5] = Stability of Form 1 in water at 25° C., XRPD; assay type: physicochemical; settings: six days
Protocol: Form 1 was suspended in water at 25° C., and the crystallinity of the solid was analysed by XRPD over a period of time.

[6] = Reflux of Form 1 in water, monitored by XRPD; assay type: physicochemical
Text: Form 1 was refluxed in water and the crystallinity of the solid was monitored by XRPD.

[7] = Maturation of Form 1 in water with or without seeds of Form 2, XRPD; assay type: physicochemical; settings: 50° C./room temperature (4 h-cycles), 75% RH
Protocol: A suspension of a solid mixture of Form 1 and Form 2 (1:1) in water was incubated at 50° C./room temperature (4 h-cycles), and at 75% RH for four days. After this time, the solid was analysed by XRPD. The crystalline pattern matched Form 2, and no traces of Form 1 were detected in this analysis.
Form 1 was suspended in water and incubated at 50° C./room temperature (4 h-cycles), and at 75% RH. In this case, the transformation of Form 1 into Form 2 was slower.

[8] = Relative stability of Form 1 and Form 2 (summary of Example 3); assay type: physicochemical
Text: The relative stability of Form 1 and Form 2 have been studied under different conditions (see Example 3).

[9] = Stability of solid forms in humidity chamber at 40° C. and 75% RH, re-analysed by XRPD; assay type: physicochemical; settings: one week
Protocol: The solids were then stored in the humidity chamber at 40° C. and 75% RH for a week to assess their stability under these conditions, and re-analysed by XRPD.

[10] = 8 and 20 mg/kg oral TIW, after 2 weeks of treatment
[11] = 8 or 20 mg/kg oral 3 times per week for 2 weeks, statistically significant at 20 mg/kg
[12] = cohort 2, 0.15 mg/kg single oral dose
[13] = cohort 3, 0.3 mg/kg single oral dose
[14] = all dose groups 2-200 mg/kg, oral gavage 3 times in 1 week, three days after last dose

SMILES: N#Cc1nc(C(=O)NCC(=O)O)c(O)c2c(Oc3ccc(Cl)cc3)cccc12 [Compound A, {[1-cyano-5-(4-chlorophenoxy)-4-hydroxy-isoquinoline-3-carbonyl]-amino}-acetic acid]
Hb, HCT and RBC (all three parameters) relative to non-anemic sham control group ([1]; 20 mg/kg oral TIW, 2 weeks): normalized
MCV in nephrectomized animals ([1]; 20 mg/kg, after 2 weeks of treatment): significantly higher
HCT compared to vehicle controls [1, 10]: significantly elevated
Hb compared to vehicle controls [1, 10]: significantly elevated
RBC compared to vehicle controls [1, 10]: significantly elevated
MCH values in nephrectomized animals ([1]; 8 and 20 mg/kg, not significant): higher
anemia associated with 5/6 nephrectomy ([1]; intermittent treatment for 2 weeks): corrected
HCT decrease induced by PG-PS challenge [2, 11]: corrected
Hb decrease induced by PG-PS challenge [2, 11]: corrected
MCH decrease induced by PG-PS challenge [2, 11]: corrected
RBC decrease induced by PG-PS challenge [2, 11]: corrected
TIBC increase induced by PG-PS challenge [2, 11]: corrected
anemia associated with anemia of chronic disease ([2]; intermittent treatment): significantly alleviated
change in mean hemoglobin levels ([3]; Cohort 1, 0.05 mg/kg, Day 0 to Day 8): did not change
Reticulocyte values (% baseline ± SD) ([3]; Cohort 1, 0.05 mg/kg, Day 3): 104 ± 8 % baseline
Reticulocyte values (% baseline ± SD) ([3]; Cohort 1, 0.05 mg/kg, Day 5): 111 ± 10 % baseline
Reticulocyte values (% baseline ± SD) ([3]; Cohort 1, 0.05 mg/kg, Day 8): 120 ± 20 % baseline
Reticulocyte values (% baseline ± SD) ([3]; Cohort 2, 0.15 mg/kg, Day 3): 111 ± 19 % baseline
Reticulocyte values (% baseline ± SD) ([3]; Cohort 2, 0.15 mg/kg, Day 5): 121 ± 22 % baseline
Reticulocyte values (% baseline ± SD) ([3]; Cohort 3, 0.3 mg/kg, Day 3): 127 ± 3 % baseline
Reticulocyte values (% baseline ± SD) ([3]; Cohort 3, 0.3 mg/kg, Day 5): 141 ± 22 % baseline
Reticulocyte values (% baseline ± SD) ([3]; Cohort 4, 0.4 mg/kg, Day 3): 163 ± 21 % baseline
Reticulocyte values (% baseline ± SD) ([3]; Cohort 4, 0.4 mg/kg, Day 5): 134 ± 22 % baseline
time of peak erythropoietin levels ([3]; cohort 1, 0.05 mg/kg single oral dose): approximately 16.8 hours
mean maximum plasma erythropoietin concentration ([3]; cohort 1, 0.05 mg/kg single oral dose, baseline mean 11.4 mIU/mL): 27.2 mIU/mL
median maximum erythropoietin concentration [3, 12]: 81.7 mIU/ml
time of peak erythropoietin levels (mean) [3, 12]: 14 h
time until mean erythropoietin levels trended back to baseline [3, 12]: approximately 5 days
Reticulocyte values (% baseline ± SD) ([3]; cohort 2, 0.15 mg/kg, Day 8): 180 ± 53 % baseline
mean hemoglobin increase ([3]; cohort 2, 0.15 mg/kg, Day 8): 0.3 g/dL
average maximum erythropoietin concentration [3, 13]: approximately 620 mIU/mL
time of peak erythropoietin levels (mean) [3, 13]: 23 h
Reticulocyte values (% baseline ± SD) ([3]; cohort 3, 0.3 mg/kg, Day 8): 231 ± 40 % baseline
mean hemoglobin increase ([3]; cohort 3, 0.3 mg/kg, Day 8): 0.8 g/dL
median time to maximum EPO concentration ([3]; cohort 4, 0.4 mg/kg single oral dose): 20 h
mean maximum plasma erythropoietin concentration ([3]; cohort 4, 0.4 mg/kg single oral dose, pending re-analysis of one sample above upper limit of quantitation): 2,900 mIU/mL
Reticulocyte values (% baseline ± SD) ([3]; cohort 4, 0.4 mg/kg, Day 8): 376 ± 60 % baseline
mean hemoglobin increase ([3]; cohort 4, 0.4 mg/kg, Day 8): 0.7 g/dL
mean hemoglobin increase ([3]; cohort 4, 0.4 mg/kg, Day 15): 1.1 g/dL
Mean hematocrit (HCT) compared to vehicle control [4, 14]: significantly higher
Mean hemoglobin (Hb) compared to vehicle control [4, 14]: significantly higher
Mean red blood counts (RBC) compared to vehicle control [4, 14]: significantly higher
Hb levels increase ([4]; lowest dose tested, 2 mg/kg, 1-week study): more than 1 g/dL

transformation on maturation in water without seeds of Form 2 ([7]; after 4 days): clear indication of Form 2 forming
transformation on maturation in water without seeds of Form 2 ([7]; after 15 days): completely turned to Form 2
hygroscopicity [8]: low hygroscopicity
stability to humidity [8]: stable
conversion of form on maturation in isopropyl acetate (IPAc) ([8]; 5° C., 25° C. and 50° C.): converts to Form 2
conversion of form on heating ([8]; heating above 200° C.): converts to Form 2
SMILES: N#Cc1nc(C(=O)NCC(=O)O)c(O)c2c(Oc3ccc(Cl)cc3)cccc12 [Form 1, {[1-cyano-5-(4-chlorophenoxy)-4-hydroxy-isoquinoline-3-carbonyl]-amino}-acetic acid]
changes in crystalline pattern in aqueous suspension [5]: remains unchanged; also recorded: No changes
crystallinity by XRPD on reflux in water ([6]; after 2.5 h): several new diffraction peaks corresponding to Form 2
crystallinity by XRPD on reflux in water ([6]; after 10 h at reflux): transformation of Form 1 into Form 2 was complete

hygroscopicity [8]: low hygroscopicity
stability to humidity [8]: stable
transformation of Form 2 into Form 1 ([8]; conditions investigated): has not been observed
SMILES: N#Cc1nc(C(=O)NCC(=O)O)c(O)c2c(Oc3ccc(Cl)cc3)cccc12 [Form 2, {[1-cyano-5-(4-chlorophenoxy)-4-hydroxy-isoquinoline-3-carbonyl]-amino}-acetic acid]
Stability at 40° C./75% RH (form found by XRPD) [9]: remained unchanged; also recorded: Form 2
relative thermodynamic stability ([8]; conditions investigated): thermodynamically more stable than Form 1

Stability at 40° C./75% RH (form found by XRPD) [9]: changed into Form 2
SMILES: N#Cc1nc(C(=O)NCC(=O)O)c(O)c2c(Oc3ccc(Cl)cc3)cccc12 [XRPD 7]
